Results reported in PubChem BioAssay (NCI).
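Exposure lasted 48 hours, with cells grown in 96-well plates and compounds tested at five concentrations. At the TGI there is no net growth.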

Columns and labels:
Assay in all cases: NCI tumour cell line growth inhibition, 48 h
DU-145 prostate = test system: DU-145 prostate
HCC-2998 colon = test system: HCC-2998 colon
HL-60(TB) leukemia = test system: HL-60(TB) leukemia
HOP-62 NSCLC = test system: HOP-62 NSCLC
NCI-H23 lung = test system: NCI-H23 lung
OVCAR-3 ovarian = test system: OVCAR-3 ovarian
SK-MEL-5 melanoma = test system: SK-MEL-5 melanoma
SW-620 colon = test system: SW-620 colon
UO-31 renal = test system: UO-31 renal
SF-539 CNS = test system: SF-539 CNS

Row | SMILES | TGI (DU-145 prostate) | TGI (HCC-2998 colon) | TGI (HL-60(TB) leukemia) | TGI (HOP-62 NSCLC) | TGI (NCI-H23 lung) | TGI (OVCAR-3 ovarian) | TGI (SK-MEL-5 melanoma) | TGI (SW-620 colon) | TGI (UO-31 renal) | TGI (SF-539 CNS)
1 | CC(c1ccccc1)N1CCN(C(C)c2ccccc2)CC1 (stereo not drawn) | > 100 µM | 44.6 µM | > 100 µM | > 100 µM | > 100 µM | > 100 µM | 35.7 µM | > 100 µM | > 100 µM | 
2 | O=C(O)CCNc1ncnc2nc[nH]c12 | > 100 µM | > 100 µM | > 100 µM | > 100 µM | > 100 µM | > 100 µM | > 100 µM | > 100 µM | > 100 µM | 
3 | BrC(=C(c1ccc(OC2CCCCO2)cc1)c1ccc(OC2CCCCO2)cc1)c1ccccc1 (stereo not drawn) | > 100 µM |  | > 100 µM | > 100 µM | > 100 µM | > 100 µM |  | > 100 µM | > 100 µM | > 100 µM
4 | O=C1OCC/C1=N/O |  | > 100 µM | > 100 µM |  | > 100 µM | > 100 µM | > 100 µM | > 100 µM | > 100 µM | > 100 µM
5 | Cc1ccc(C2=CC(=O)OC(C[P+](c3ccccc3)(c3ccccc3)c3ccccc3)(c3ccccc3)O2)cc1 (stereo not drawn) | 30.3 µM | 38.2 µM | 47.3 µM | 34.9 µM | 27.2 µM | 30.7 µM | 29.8 µM |  | 30.9 µM | 33.8 µM
6 | COc1cc(O)c2c(c1)C(=O)c1cc3c(c(O)c1C2=O)C(OC1OC(C)C(OC)C(O)C1OC)C(OC)C(C)(O)C3=O (stereo not drawn) |  | 17.4 µM | > 100 µM | 44.2 µM | 23.2 µM | 22.6 µM | 3.86 µM | 18.1 µM |  | 17.8 µM
7 | CC(O)CNC(=O)C(C)Oc1ccc(OCC2CCCCC2)cc1 (stereo not drawn) |  | > 100 µM | > 100 µM |  |  | > 100 µM | > 100 µM |  | > 100 µM | > 100 µM
8 | Cc1c(O)nc(-n2[nH]c3c(c2=O)CCCC3)[nH]c1=O | > 100 µM |  | > 100 µM |  | > 100 µM |  | > 100 µM | > 100 µM | > 100 µM | 
9 | O=c1[nH][nH]c(=O)n1CCCCCCn1c(=O)[nH][nH]c1=O | > 100 µM | > 100 µM | > 100 µM |  | > 100 µM | > 100 µM | > 100 µM | > 100 µM | > 100 µM | > 100 µM
10 | CCN1CN(c2ccccc2)C2(CCN(CC3COc4ccccc4O3)CC2)C1=O (stereo not drawn) | > 100 µM |  | 45.5 µM | > 100 µM | > 100 µM | > 100 µM | 32.1 µM | > 100 µM | 76.6 µM | 33.3 µM
11 | O=P(O)(O)C(N=C(Nc1ccccc1)Nc1ccccc1)P(=O)(O)O | > 100 µM | > 100 µM |  | > 100 µM | > 100 µM | > 100 µM | > 100 µM |  | > 100 µM | > 100 µM
12 | C=C1CC(C#N)(C#N)[C@H]2C3CCCC3C[C@@H]12 (stereo partly drawn) (tested in a mixture with another compound) | > 100 µM |  | 54.2 µM |  |  | 38.9 µM | > 100 µM | 29.7 µM | 35.3 µM | 50.2 µM
13 | Cc1nn(-c2ccccc2)c2c1C(c1cc3ccccc3nc1Cl)NC(=O)N2 (stereo not drawn) | > 100 µM |  | 52.6 µM | 54.4 µM | 37.6 µM | > 100 µM | 31.3 µM | 36.7 µM | 28.2 µM | 45.9 µM
14 | OC[C@H]1O[C@@H]2O[C@@](COCc3ccccc3)([C@H](OCc3ccccc3)[C@H]2O)[C@@H]1OCc1ccccc1 | 30.1 µM |  | 38.2 µM | 32.6 µM | 34.1 µM | 27.7 µM | 29.2 µM | 38.6 µM | 29.4 µM | 32.9 µM
15 | O=C1c2ccccc2C(=O)N1n1c(Cc2ccc([N+](=O)[O-])cc2)n[nH]c1=O | > 100 µM | > 100 µM |  | > 100 µM | > 100 µM | > 100 µM | > 100 µM | > 100 µM | > 100 µM | > 100 µM
16 | COc1cc(OC)c2c(=O)cc(-c3ccc(OC)c(OC)c3OC)oc2c1 |  | > 100 µM | > 100 µM | > 100 µM | > 100 µM | > 100 µM |  | > 100 µM |  | > 100 µM
17 | CC(C)(C)[Si](C)(C)OCC1OC(n2ccc(=O)[nH]c2=O)C(O[Si](C)(C)C(C)(C)C)/C1=C/C#N (stereo not drawn) | > 100 µM | > 100 µM |  | > 100 µM | > 100 µM | > 100 µM | 11.9 µM | > 100 µM | > 100 µM | > 64 µM
18 | COc1ccc(CCN(C)C2CCC(C#N)(c3ccc(OC)c(OC)c3)CC2)cc1OC (stereo not drawn) |  | > 100 µM | > 100 µM | > 100 µM | > 100 µM | > 100 µM | > 100 µM | > 100 µM | > 100 µM | > 100 µM
19 | C=C(C(=O)OCC)C(=O)OCC | > 100 µM | > 100 µM |  | > 100 µM | > 100 µM | > 100 µM | > 100 µM | > 100 µM | > 100 µM | > 100 µM
20 | CC1=Cc2cccc(C)c2C(=O)C1=O |  | 27.8 µM | 1.37 µM | 30.2 µM | 32.8 µM | 6.78 µM | 10.7 µM | 10.3 µM | 27.1 µM | 15.5 µM
21 | O=C1OC(C2Cc3ccc4ccccc4c3C2=O)c2ccccc21 (stereo not drawn) | > 100 µM | > 100 µM | > 100 µM |  |  | 98.1 µM | 98.2 µM | > 100 µM | > 100 µM | 56.5 µM
22 | Cc1ccc(/C=N\NC2c3cc(Cl)ccc3Nc3nc(=O)[nH]c(C)c32)cc1 (stereo not drawn) |  | > 100 µM | > 100 µM | > 100 µM | > 100 µM | > 100 µM |  | > 100 µM | > 100 µM | > 100 µM
23 | COC(=O)/C(=C/c1ccc(OC)cc1)C(C(=O)O)=C1CCCC1 |  | > 100 µM | > 100 µM | > 100 µM | > 100 µM |  | > 100 µM | > 100 µM | > 100 µM | > 100 µM
24 | S=c1c2cn[nH]c2nc2scc(-c3ccc(Cl)cc3)n12 |  | 32.5 µM |  | 40.1 µM | 30.1 µM | 47.8 µM | > 100 µM | 22.3 µM | 41.8 µM | 38.4 µM
